# Experimental data from patent publication US11484513B2, “Salbutamol-containing ophthalmic medicament” (priority 2016, dated 2022).
# Experiments:
# Vitreo macular traction = experiment: Clinical observation in vitreo macular traction / proliferative diabetic retinopathy (vitreolysis); assay type: in vivo, human
# Description: (§1) The invention will be illustrated further by the description of clinical examples, which of course are not limiting in nature. The medicament was administrated orally, topically in the form of eye drops or by intraocular injection especially intravitreal injection, unless indicated differently.
# In many cases of proliferative diabetic retinopathy including fibrovascular proliferation, retinal detachment, vitreo macular traction, the intravitreal injection of Salbutamol led to induction of posterior vitreous detachment, easier peeling and removal of epiretinal fibrotic membrane and internal limiting membrane particularly in macular hole pathology.
# Presbyopia = experiment: Clinical observation in presbyopia patients; assay type: in vivo, human; details: 08 patients, eye drops
# Description: as §1
# (§2) According to particular embodiments where topical administration using eye drops is carried out, the dosages, posologies, administration regimen of the administered active principles are as described in the particular embodiments disclosed in the detailed description, i.e., Salbutamol is administered topically in a concentration of 0.1% (w/v), and/or Ramiprilate is administered topically in a concentration of 2% (w/v), and/or eplerenone is administered topically in a concentration of 1% (w/v), and/or N Acetyl DL Leucine is administered topically in a concentration of 1% (w/v), the active principle(s) being administered once or twice or three times, and up to four times a day, during 1, 2 or 3 months, or more, unless specified differently.
# 08 patients received Salbutamol in the form of eye drops and experimented an improvement of their near vision and a decrease in presbyopia. […] Salbutamol has proven to be an effective treatment of presbyopia.
# Astigmatism = experiment: Clinical observation in astigmatism subjects; assay type: in vivo, human
# Description: The invention will be illustrated further by the description of clinical examples, which of course are not limiting in nature. The medicament was administrated orally, topically in the form of eye drops or by intraocular injection especially intravitreal injection, unless indicated differently. This invention relates to the manufacture of an eye protective medicament, namely Salbutamol via general route or topical route (eye drops) for improving vision. More particularly, but not exclusively, it relates to eye drops comprising Salbutamol, which are intended for improving (i.e., in the present case decreasing the effects of presbyopia, myopia, hypermetropia and astigmatism) and for stabilizing them or even reversing their evolutive course thereof. The astigmatism subjects noticed an improvement of their refraction and visual acuity.
# Cataract = experiment: Clinical observation in cataract; assay type: in vivo, human; details: under salbutamol
# Description: as §1
# Glaucoma = experiment: Clinical observation in glaucoma patients; assay type: in vivo, human; details: patients with known glaucoma, pooled (Salbutamol alone or associated)
# Description: as §1
# Patients with known glaucoma experienced a decrease in their ocular tension, and an improvement of their visual acuity and visual field once they are treated with Salbutamol or salbutamol associated with one or more of these: N Acetyl DL Leucine, glucose, magnesium, aldosterone receptor antagonist (eplerenone), angiotensin converting enzyme inhibitor (Ramiprilat), β1 blocker and anhydrase carbonic inhibitor.
# [1] = system: Age related physiological vision decline; experiment: Clinical observation in age related physiological vision decline; assay type: in vivo, human; details: many cases, absence of any ocular pathology
# Description: as §1
# [2] = system: Age related macular degeneration; experiment: Clinical observation in age related macular degeneration patients (visual acuity, OCT, fluoro-angiography); assay type: in vivo, human
# Description: as §1, §2
# The structural information provided by O.C.T is becoming a valuable diagnostic adjunct to fluorescein angiography. OCT is a valuable tool for probing the effect of these treatments.
# 15 patients were treated with salbutamol or salbutamol associated with one or more of these: aldosterone receptor antagonist, ACEI (angiotensin converting enzyme inhibitor), N Acetyl DL Leucine, magnesium and serrapeptase (Eye drops; tablets; intra ocular injection).
# Patient three presented with a history of decreased vision in the right eye. […] Prior to receiving Salbutamol treatment an OCT scan was taken, which is shown in (FIG. 06).
# Then we prescribe topically Salbutamol eye drops 0.1% (w/v), Ramiprilat eye drops 2% (W/v), Eplerenone eye drops 1% (w/v). N Acetyl DL Leucine eye drops 1% (w/v) association three times a day.
# Patient two presented with a six months history of decreased vision in the right eye.
# They were treated with Salbutamol eye drops 0.1% (w/v). Three months later visual acuity improved.
# Diabetic retinopathy = experiment: Clinical observation in diabetic retinopathy patients (visual acuity, OCT); assay type: in vivo, human
# Description: as §1, §2
# Currently, one examination technique is very useful in evaluating diabetic; that's optical coherence tomography (O.C.T).
# OCT is very sensitive in evaluating diabetic macular oedema, central macular thickness correlates with visual acuity.
# The response of macular oedema to the administration of one drug such as Salbutamol or a medicament associating Salbutamol, angiotensin converting enzyme inhibitor, antagonist of aldosterone receptor and N Acetyl DL Leucine can be documented accurately by O.C.T imaging.
# Diabetic patients were treated with these medicaments given topically,
# The following study was undertaken on several patients having non-proliferative diabetic; retinopathy or proliferative diabetic retinopathy.
# 20 patients were treated with either Salbutamol or salbutamol associated with one or more of these: ACEI (angiotensin converting enzyme inhibitor), aldosterone receptor antagonist, N Acetyl DL Leucine, magnesium and serrapeptase (eye drops; tablets; intra ocular injection especially intra vitreal injection). […]
# Dry eye = experiment: Clinical observation in dry eye patients; assay type: in vivo, human; details: 7 patients, eye drops
# Description: as §1
# Stargardt's disease = experiment: Clinical observation in Stargardt's disease patients; assay type: in vivo, human; details: 8 patients
# Description: as §1
# 8 patients treated with Salbutamol noticed an improvement of their visual acuity.
# If we associate to Salbutamol one or more of these: N Acetyl DL Leucine, nitric monoxide donor (vitamin C, vitamin B9), Ramiprilat, and aldosterone receptor antagonist; improvement is noted.
# Periretinal fibrosis = experiment: Clinical observation in periretinal fibrosis; details: human, in vivo
# Description: as §1
# 13) Periretinal fibrosis: is reduced after Salbutamol treatment.
# Vitreous hemorrhage = experiment: Clinical observation in vitreous hemorrhage; assay type: in vivo, human; details: many cases
# Description: as §1
# Myopia = experiment: Clinical observation in myopia patients; assay type: in vivo, human; details: 12 myopia patients, eye drops
# Description: as §1, §2
# This invention relates to the manufacture of an eye protective medicament, namely Salbutamol via general route or topical route (eye drops) for improving vision.
# 12 patients were evaluated and received salbutamol in the form of eye drops.
# Results: in the addition to the improvement of their visual acuity, the refractive value was reduced. […]
# Corneal oedema = experiment: Clinical observation in corneal oedema patients; assay type: in vivo, human; details: 10 patients
# Description: as §1
# Pigmentosa retinitis = experiment: Clinical observation in pigmentosa retinitis patients; assay type: in vivo, human
# Description: as §1
# Keratoconus = experiment: Clinical observation in keratoconus patients; assay type: in vivo, human; details: 02 keratoconus patients
# Description: The invention will be illustrated further by the description of clinical examples, which of course are not limiting in nature. The medicament was administrated orally, topically in the form of eye drops or by intraocular injection especially intravitreal injection, unless indicated differently. 02 patients received Salbutamol, they noticed an improvement of visual acuity and a reduced irregular astigmatism.
# Uveitis = experiment: Clinical observation in uveitis cases (visual acuity, OCT); assay type: in vivo, human; details: 10 cases of uveitis pooled (salbutamol alone or associated)
# Description: as §1, §2
# In 10 cases of uveitis; salbutamol alone or associated with one or more of these: non-steroidal anti inflammatory drugs, angiotensin converting enzyme inhibitors, aldosterone receptors antagonist, β1 blocker, anhydrase carbonic inhibitor, magnesium, corticosteroids and serrapeptase reduced inflammatory disorders. […]
# [3] = system: Allergic conjunctivitis and blepharitis; experiment: Clinical observation in allergic conjunctivitis and blepharitis patients; assay type: in vivo, human; details: 5 patients, eye drops
# Description: as §1
# [4] = 15 patients pooled (salbutamol alone or associated), eye drops, tablets, intra ocular injection
# [5] = patient two, right eye, Salbutamol eye drops 0.1% (w/v), three months later
# [6] = 20 patients pooled (Salbutamol alone or associated), eye drops, tablets, intra ocular injection
smiles,measurement,setting,value
CC(C)(C)NCC(O)c1ccc(O)c(CO)c1 (stereo not shown) [Salbutamol],effect on the retina,Vitreo macular traction; during vitreolysis,without adversely affecting the retina
same,proteolytic activity,"Vitreo macular traction; human, in vivo",seems to have a proteolytic activity
same,vitreolysis,"Vitreo macular traction; human, in vivo",promotes a vitreolysis inducing both synchesis and synerisis
same,posterior vitreous detachment,"Vitreo macular traction; intravitreal injection, many cases of proliferative diabetic retinopathy incl. vitreo macular traction",induction
same,peeling and removal of epiretinal fibrotic membrane and internal limiting membrane,"Vitreo macular traction; intravitreal injection, many cases of proliferative diabetic retinopathy, particularly macular hole pathology",easier
same,near vision,Presbyopia,improvement
same,need to wear a correction of the near vision,Presbyopia,Some of them did not need any longer
same,presbyopia,Presbyopia,decrease
same,refraction,Astigmatism,improvement
same,visual acuity,Astigmatism,improvement
same,improvement of cataract,Cataract,Some improvement
same,ocular tension,Glaucoma,decrease
same,visual acuity,Glaucoma,improvement
same,visual field,Glaucoma,improvement
same,visual function,[1],improved
same,O.C.T,[2]; [4],improvement
same,visual acuity,[2]; [4],improvement
same,macular thickening,[2]; eye drops given topically instead of intraocular anti VEGF injection,regression
same,successive OCT controls,"[2]; patient three, first round of treatment (Salbutamol)",more improvement but no complete recovery
same,macular thickening,"[2]; patient three, right eye, occult CNV, three months after Salbutamol treatment",incomplete regression
same,macular thickening (OCT),[2]; [5],incomplete regression
same,visual acuity,[2]; [5],improved
same,retinopathy,Diabetic retinopathy; [6],improves
same,visual acuity,Diabetic retinopathy; [6],improves
same,total macular volume (OCT),"Diabetic retinopathy; patient one, eye drops 0.1% (w/v), two months after treatment",decreased
same,dry eye,Dry eye,improved
same,visual acuity,Stargardt's disease,improvement
same,periretinal fibrosis,Periretinal fibrosis,reduced
same,vitreous hemorrhage,Vitreous hemorrhage,decreased
same,refractive value,Myopia,reduced
same,visual acuity,Myopia,improvement
same,oedema,Corneal oedema,decreased
same,vision,Corneal oedema,improve
same,visual acuity,"Pigmentosa retinitis; 9 patients, all of them",improvement
same,visual field,"Pigmentosa retinitis; 9 patients, all of them",improvement
same,visual function,Pigmentosa retinitis; pigmentosa retinitis,improvement
same,irregular astigmatism,Keratoconus,reduced
same,visual acuity,Keratoconus,improvement
same,inflammatory disorders,Uveitis,reduced
same,allergic conjunctivitis and blepharitis,[3],improved
